The molecules below were run against T1, X-linked inhibitor of apoptosis protein (XIAP) (Homo sapiens, UniProt P98170) (assay: fluorescence polarization displacement of 5-FAM Smac/Diablo peptide from recombinant BIR3).
T1 construct: GST-tagged XIAP-BIR3 domain
T1 sequence (P98170 241-356 limits assumed): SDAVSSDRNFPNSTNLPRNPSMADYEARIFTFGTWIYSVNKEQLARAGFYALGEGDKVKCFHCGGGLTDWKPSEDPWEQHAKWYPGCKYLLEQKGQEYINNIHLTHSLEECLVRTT
Type: binding
Molecule `CCCCCCCCCCCC1=C(O)C(=O)C=C(O)C1=O` [Embelin] has an IC50 of 3.1 ± 0.6 µM.
For `O=c1cccccc1O` [Tropolone], the IC50 was 83.1 ± 6.9 µM.
Molecule `CC(C)c1cccc(=O)c(O)c1` [β-thujaplicin] has an IC50 of 58.5 ± 2.8 µM.
For `CC(C)c1ccc(O)c(=O)cc1` [γ-thujaplicin], the IC50 was 56.2 ± 2.9 µM.

Source: paper PMC8229775, “β-Thujaplicin Enhances TRAIL-Induced Apoptosis via the Dual Effects of XIAP Inhibition and Degradation in NCI-H460 Human Lung Cancer Cells” (Medicines, 2021)
